ChEMBL document CHEMBL1201862, “PubChem BioAssay data set” (2004)
The source made the active and inactive calls.

Columns and labels:
[1] = system: Streptococcus sp. 'group A'; experiment: Streptococcus pyogenes SK(-)GAS viability under kanamycin – luminescence, BacTiterGlo, confirmation, counter-screen for streptokinase expression inhibitor project, dose response (AID 1900); type: functional, organism-based
[2] = system: Streptococcus; experiment: GAS UMAA2166 growth inhibition – luminescence, BacTiterGlo, counter-screen for streptokinase expression inhibitor project, dose response (AID 1915); type: functional, organism-based;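 note: potency for reduction of bacterial viability or growth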
[3] = target: T1, Streptokinase A (Streptococcus pyogenes serotype M1, UniProt P10520); experiment: viability-normalized secreted streptokinase activity reduction – plasminogen activation absorbance, OD405, dose response (AID 1914); type: functional, Streptococcus pyogenes M1 GAS;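 note: secreted streptokinase activity via plasminogen activation per viability signal from cell pellet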
T1 sequence (P10520 whole entry): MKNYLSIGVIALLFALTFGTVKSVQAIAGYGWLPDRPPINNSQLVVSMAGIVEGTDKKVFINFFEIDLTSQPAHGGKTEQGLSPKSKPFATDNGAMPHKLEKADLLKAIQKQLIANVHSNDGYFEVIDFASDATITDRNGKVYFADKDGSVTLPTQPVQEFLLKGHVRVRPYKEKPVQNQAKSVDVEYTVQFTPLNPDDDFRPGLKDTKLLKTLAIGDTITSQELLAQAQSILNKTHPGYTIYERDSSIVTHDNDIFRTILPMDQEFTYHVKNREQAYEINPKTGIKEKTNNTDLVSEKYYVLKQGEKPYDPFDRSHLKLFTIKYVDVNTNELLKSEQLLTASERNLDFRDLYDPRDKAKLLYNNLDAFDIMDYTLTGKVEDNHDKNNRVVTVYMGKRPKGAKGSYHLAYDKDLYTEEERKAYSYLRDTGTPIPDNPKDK

[4] = target: Beta-galactosidase (Escherichia coli, UniProt Q8VNN2); experiment: detection-enzyme interference by beta-gal modulators – biochemical, E. coli enzyme, set 3, artefact control for CCR6 antagonist project, dose response (AID 504712); type: functional
[5] = system: HEK293; experiment: cells; conditions: Homo sapiens;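 note: cells exposed to compound for 14 hours overnight before viability readout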
[6] = target: Nucleotide-binding oligomerization domain-containing protein 2 (Homo sapiens, UniProt Q9HC29); experiment: PubChem AID 2334; type: functional
[7] = target: Tumor necrosis factor (Homo sapiens, UniProt P01375); experiment: analog potency on TNFa NF-kB signaling – cell-based, revised, SAR follow-up (AID 2337); type: functional
[8] = target: T2, Nucleotide-binding oligomerization domain-containing protein 1 (Homo sapiens, UniProt Q9Y239); experiment: blockers of NOD1 pathway activity – revised, SAR follow-up (AID 2333); type: functional
T2 sequence (Q9Y239 whole entry): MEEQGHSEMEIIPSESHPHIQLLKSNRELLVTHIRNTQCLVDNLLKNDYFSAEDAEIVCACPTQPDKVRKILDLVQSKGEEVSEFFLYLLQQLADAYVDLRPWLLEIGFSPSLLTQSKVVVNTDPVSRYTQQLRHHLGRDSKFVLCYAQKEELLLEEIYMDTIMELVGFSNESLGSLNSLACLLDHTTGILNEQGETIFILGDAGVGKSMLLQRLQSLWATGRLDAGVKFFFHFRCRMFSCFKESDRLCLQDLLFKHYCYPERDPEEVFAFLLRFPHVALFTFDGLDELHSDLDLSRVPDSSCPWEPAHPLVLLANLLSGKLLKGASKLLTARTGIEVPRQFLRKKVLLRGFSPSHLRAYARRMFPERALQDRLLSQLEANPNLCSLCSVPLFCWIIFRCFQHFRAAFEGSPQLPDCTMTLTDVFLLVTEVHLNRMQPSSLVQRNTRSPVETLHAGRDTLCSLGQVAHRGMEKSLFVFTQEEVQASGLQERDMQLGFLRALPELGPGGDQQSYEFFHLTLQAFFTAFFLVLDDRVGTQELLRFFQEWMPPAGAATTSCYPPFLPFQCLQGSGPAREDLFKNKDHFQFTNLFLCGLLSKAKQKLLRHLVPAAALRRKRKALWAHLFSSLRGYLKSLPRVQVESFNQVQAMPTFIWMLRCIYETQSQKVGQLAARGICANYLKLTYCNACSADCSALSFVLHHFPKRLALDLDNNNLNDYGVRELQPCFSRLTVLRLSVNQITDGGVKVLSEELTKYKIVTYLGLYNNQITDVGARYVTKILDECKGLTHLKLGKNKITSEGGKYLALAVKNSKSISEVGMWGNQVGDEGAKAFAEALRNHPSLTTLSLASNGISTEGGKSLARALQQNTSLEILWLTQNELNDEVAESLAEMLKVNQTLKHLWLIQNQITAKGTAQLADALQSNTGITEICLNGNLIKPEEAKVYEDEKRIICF

[9] = target: DNA dC->dU-editing enzyme APOBEC-3G (Homo sapiens, UniProt Q9HC16); experiment: Dose Response confirmation of small molecule APOBEC3G DNA Deaminase Inhibitors via a fluorescence-based single-stranded DNA deaminase assay. [Related pubchem assays (depositor defined):AID493012, AID493028]; type: functional
[10] = viability of uninfected HEp-2 cells – cell-based, HTS, cytotoxicity control for RSV inhibitor project, dose response (AID 2410); type: functional; conditions: human respiratory syncytial virus
[11] = cells
[12] = target: T3, Bcl-2-like protein 10 (Homo sapiens, UniProt Q9HD36); experiment: Bcl-B/TR3 peptide binding disruption – biochemical, fluorescence polarization, FITC-TR3 peptide, selectivity assay for Bfl-1 inhibitor project, primary screen (AID 748);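 note: fluorescence polarization from a fluorescein-labelled TR3 peptide binding purified Bcl-B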
T3 sequence (Q9HD36 whole entry): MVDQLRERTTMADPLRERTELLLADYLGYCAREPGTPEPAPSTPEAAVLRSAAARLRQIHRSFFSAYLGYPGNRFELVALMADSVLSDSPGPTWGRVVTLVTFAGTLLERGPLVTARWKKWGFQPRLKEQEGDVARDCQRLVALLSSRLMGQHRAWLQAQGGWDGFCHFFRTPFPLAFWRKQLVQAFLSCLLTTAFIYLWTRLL

[13] = target: CAAX prenyl protease 2 (Saccharomyces cerevisiae S288c, UniProt Q03530); type: biochemical
[14] = NIH3T3 cell viability loss – ATP luminescence, mouse fibroblasts, counter-screen, dose response (AID 2010); type: functional, cell-based;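 note: cells exposed to compound for about 90 hours before reading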
[15] = Trypanosoma cruzi growth suppression in host cells – NIH3T3 host cells, beta-gal luminescence, confirmation (AID 2044); type: functional, cell-based;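 note: intracellular parasites grown in NIH/3T3 mouse fibroblasts as host cells; luminescent beta-galactosidase reporter signal from transgenic T. cruzi replicating inside host cells; inhibitors lower the luminescence signal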
[16] = target: Trypsin (Sus scrofa, UniProt P00761); experiment: trypsin protease activity blockade – biochemical, quenched peptide fluorescence, cherry-pick, selectivity assay for Rce1 protease inhibitor project, dose response (AID 488789)
Sequence of Trypsin (P00761 whole entry): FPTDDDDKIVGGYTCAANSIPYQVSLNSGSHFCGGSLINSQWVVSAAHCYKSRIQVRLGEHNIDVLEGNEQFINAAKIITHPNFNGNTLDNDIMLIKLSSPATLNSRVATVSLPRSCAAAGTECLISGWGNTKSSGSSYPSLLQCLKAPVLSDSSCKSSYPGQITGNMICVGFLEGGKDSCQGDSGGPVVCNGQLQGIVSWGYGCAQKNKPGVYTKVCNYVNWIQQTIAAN

Sequence of CAAX prenyl protease 2 (Q03530 whole entry): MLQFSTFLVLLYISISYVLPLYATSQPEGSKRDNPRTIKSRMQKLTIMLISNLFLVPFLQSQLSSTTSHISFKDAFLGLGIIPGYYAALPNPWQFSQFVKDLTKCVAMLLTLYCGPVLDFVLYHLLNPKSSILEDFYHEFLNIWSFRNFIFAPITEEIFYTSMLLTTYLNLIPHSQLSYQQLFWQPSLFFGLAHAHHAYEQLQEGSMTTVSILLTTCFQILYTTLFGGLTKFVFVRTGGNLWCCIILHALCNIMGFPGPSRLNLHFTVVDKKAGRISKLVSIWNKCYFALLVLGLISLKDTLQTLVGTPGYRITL
Sequence of DNA dC->dU-editing enzyme APOBEC-3G (Q9HC16 whole entry): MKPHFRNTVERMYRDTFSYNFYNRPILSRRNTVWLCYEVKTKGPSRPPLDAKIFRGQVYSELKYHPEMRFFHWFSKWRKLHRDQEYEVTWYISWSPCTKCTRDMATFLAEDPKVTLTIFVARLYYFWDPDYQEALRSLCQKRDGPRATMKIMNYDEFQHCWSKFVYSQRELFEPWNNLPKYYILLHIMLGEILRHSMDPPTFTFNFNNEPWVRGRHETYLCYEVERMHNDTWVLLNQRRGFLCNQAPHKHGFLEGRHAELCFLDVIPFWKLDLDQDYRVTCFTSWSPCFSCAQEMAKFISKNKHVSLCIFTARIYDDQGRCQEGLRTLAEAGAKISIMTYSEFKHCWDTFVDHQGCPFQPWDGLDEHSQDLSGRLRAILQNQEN
Sequence of Beta-galactosidase (Q8VNN2 whole entry): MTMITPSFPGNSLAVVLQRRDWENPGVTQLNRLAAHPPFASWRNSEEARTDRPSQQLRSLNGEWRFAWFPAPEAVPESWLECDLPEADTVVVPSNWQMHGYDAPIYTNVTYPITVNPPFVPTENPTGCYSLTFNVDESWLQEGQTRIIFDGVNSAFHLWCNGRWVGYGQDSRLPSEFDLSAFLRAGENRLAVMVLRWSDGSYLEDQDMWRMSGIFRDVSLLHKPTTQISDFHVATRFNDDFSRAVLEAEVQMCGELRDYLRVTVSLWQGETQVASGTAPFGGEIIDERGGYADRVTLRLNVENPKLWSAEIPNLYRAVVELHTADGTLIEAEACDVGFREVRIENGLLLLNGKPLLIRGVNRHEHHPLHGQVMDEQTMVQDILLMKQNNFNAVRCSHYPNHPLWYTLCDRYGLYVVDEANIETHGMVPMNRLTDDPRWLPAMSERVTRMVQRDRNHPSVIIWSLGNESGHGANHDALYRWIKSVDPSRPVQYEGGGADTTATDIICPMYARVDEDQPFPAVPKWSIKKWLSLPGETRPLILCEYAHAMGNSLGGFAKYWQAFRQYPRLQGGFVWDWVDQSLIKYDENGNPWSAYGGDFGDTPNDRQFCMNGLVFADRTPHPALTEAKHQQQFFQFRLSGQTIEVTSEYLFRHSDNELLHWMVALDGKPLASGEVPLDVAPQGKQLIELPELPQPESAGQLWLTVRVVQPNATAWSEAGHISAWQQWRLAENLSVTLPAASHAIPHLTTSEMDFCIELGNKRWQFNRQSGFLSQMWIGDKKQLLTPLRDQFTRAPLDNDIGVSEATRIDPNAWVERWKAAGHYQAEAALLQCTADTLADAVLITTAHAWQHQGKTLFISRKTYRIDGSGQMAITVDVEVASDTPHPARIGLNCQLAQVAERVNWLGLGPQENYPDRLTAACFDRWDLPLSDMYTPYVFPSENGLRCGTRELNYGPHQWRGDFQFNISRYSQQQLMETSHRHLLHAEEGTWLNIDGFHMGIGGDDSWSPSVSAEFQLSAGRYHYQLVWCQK
Sequence of Nucleotide-binding oligomerization domain-containing protein 2 (Q9HC29 whole entry, the tested form may be a part): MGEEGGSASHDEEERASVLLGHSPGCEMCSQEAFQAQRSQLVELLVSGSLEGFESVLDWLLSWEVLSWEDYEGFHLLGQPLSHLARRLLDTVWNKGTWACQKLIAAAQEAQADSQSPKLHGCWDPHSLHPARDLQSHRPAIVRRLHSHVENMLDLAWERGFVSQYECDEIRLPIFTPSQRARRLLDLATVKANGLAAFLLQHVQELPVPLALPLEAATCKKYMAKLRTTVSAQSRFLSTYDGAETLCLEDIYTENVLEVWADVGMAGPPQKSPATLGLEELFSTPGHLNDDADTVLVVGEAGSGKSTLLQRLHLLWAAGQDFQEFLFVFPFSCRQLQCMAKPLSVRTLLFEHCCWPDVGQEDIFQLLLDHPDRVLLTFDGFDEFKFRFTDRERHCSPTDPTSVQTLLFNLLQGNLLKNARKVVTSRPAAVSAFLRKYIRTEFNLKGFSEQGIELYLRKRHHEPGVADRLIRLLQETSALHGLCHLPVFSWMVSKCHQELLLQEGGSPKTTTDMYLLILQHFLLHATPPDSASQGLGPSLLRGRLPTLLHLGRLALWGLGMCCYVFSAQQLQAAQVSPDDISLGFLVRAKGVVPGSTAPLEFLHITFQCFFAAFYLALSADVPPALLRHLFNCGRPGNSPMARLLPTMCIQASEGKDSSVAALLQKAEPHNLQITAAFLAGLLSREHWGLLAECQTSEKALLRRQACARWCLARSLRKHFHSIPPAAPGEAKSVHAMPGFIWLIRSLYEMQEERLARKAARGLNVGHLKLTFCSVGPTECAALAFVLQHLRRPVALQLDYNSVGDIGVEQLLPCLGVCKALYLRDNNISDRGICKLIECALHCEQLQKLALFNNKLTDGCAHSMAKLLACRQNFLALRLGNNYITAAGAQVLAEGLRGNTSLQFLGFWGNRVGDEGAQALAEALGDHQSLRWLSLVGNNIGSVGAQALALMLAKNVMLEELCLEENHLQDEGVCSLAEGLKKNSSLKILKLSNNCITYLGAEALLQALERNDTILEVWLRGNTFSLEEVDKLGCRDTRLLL
Sequence of Tumor necrosis factor (P01375 whole entry, the tested form may be a part): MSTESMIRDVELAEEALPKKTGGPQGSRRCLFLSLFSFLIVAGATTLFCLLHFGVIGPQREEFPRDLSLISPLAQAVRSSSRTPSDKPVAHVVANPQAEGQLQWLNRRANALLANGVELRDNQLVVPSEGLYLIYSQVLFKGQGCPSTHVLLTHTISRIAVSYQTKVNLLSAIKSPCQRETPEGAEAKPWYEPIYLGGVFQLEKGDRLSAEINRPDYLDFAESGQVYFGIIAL

CCCCCCC(=O)NN/C=C1\C(=O)NC(=S)N(C(C)CC)C1=O (stereo not drawn)
EC50 [1]: 5.17 µM (active)
EC50 [2]: 9.29 µM (active)
EC50 [3]: > 150 µM (not active)
IC50 [4]: > 66.6 µM (inactive)

O=C(Nc1nc2ccccc2n1Cc1ccc(Cl)cc1)c1ccccc1
IC50 [5]: > 20 µM (inactive)
IC50 [6]: > 20 µM (inactive)
IC50 [7]: > 20 µM (inactive)
IC50 [8]: > 20 µM (inactive)

c1ccc(-c2nn3c(Cn4cnc5ccccc54)nnc3s2)cc1
IC50 [9]: > 100 µM (inactive)
CC50 [10]: 42.6 µM (active)
IC50 [11]: 5.46 µM (active)

O=S(=O)(c1ccccc1)N(CC(O)CN1CCCCC1)c1ccccc1 (stereo not drawn)
IC50 [12]: > 100 µM (inactive)

COc1ccc(-c2ccc3oc(-c4ccc(OC)cc4)c(-c4ccc(OC)cc4)c3c2)cc1
AC50 [13]: 18 µM (active)

O=C(CSc1nc2ccccc2s1)N1N=C(c2cccs2)CC1c1ccc(F)cc1 (stereo not drawn)
EC50 [14]: > 60 µM (not active)
EC50 [15]: 1.06 µM (active)
AC50 [13]: 12.1 µM (active)
AC50 [16]: 24.5 µM (active)

COC(=O)c1[nH]c2ccc(C)cc2c1NC(=O)CCN1CCN(Cc2ccc3c(c2)OCO3)CC1
IC50 [12]: > 100 µM (inactive)
